# Data taken from the METLIN SMRT retention time set (Domingo-Almenara et al. 2019).
# Assay: gradient 5% acetonitrile 3 min, to 50% in 2 min, to 85% in 15 min, held 3 min, 100 µL/min
# Settings: column: Zorbax Extend-C18 2.1 x 50 mm; eluents: water / acetonitrile, 0.1% formic acid
# Summary of the method: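 Data were gathered over 3 months by HPLC coupled to a quadrupole time-of-flight mass spectrometer, operated in positive and negative ionization mode. Mixtures of ~100 pure standards ran on a Zorbax Extend-C18 column (2.1 × 50 mm, 1.8 μm) at 100 μL/min, with water and acetonitrile each containing 0.1% formic acid and dead and dwell volumes of 40 μL and 900 μL. Retention time was read from adduct peaks picked by computer and checked manually.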
row,Compound,RP-LC retention time [s]
1,CCn1c(=O)c2cc(C(=O)Nc3ccc(OC)cc3OC)nn2c2ccccc21,1030
2,COCCC1(NC(=O)c2ccsc2)CCN(S(C)(=O)=O)CC1,691
3,Cc1sc(NC(=O)c2ccccc2Br)nc1-c1ccc2c(c1)NC(=O)CO2,859
4,Cn1cc(-c2nc(C(=O)Nc3ccc(Cl)cc3)cs2)c2cccnc21,1090
5,COC(=O)c1c(C)c(C(=O)C(C)N(CC(C)C)C(=O)c2ccc(F)cc2)c(C)n1C (centres undefined),1020
6,COC(=O)c1c(C)[nH]c(C(=O)N2CCC(CC(=O)NCc3cccc(Cl)c3)CC2)c1C,770
7,COCCCNC(=O)C1CCN(c2nnc(-c3ccccc3)o2)CC1,659
8,CC1CCN(S(=O)(=O)c2cccnc2Nc2ccc(Cl)cc2)CC1,1370
9,CCn1c(=O)c(N2CCCC(C(=O)N3CCN(C(=O)c4ccco4)CC3)C2)nc2ccccc21 (centres undefined),832
10,c1ccc(-c2noc(CN3CCCCC3c3nc(C4CC4)no3)n2)nc1 (centres undefined),784
11,Cn1c(=O)c2cc(C(=O)N3CCN(c4ccccn4)CC3)sc2n(C)c1=O,578
12,COC(=O)c1sccc1NC(=O)N1CCCn2nc(-c3cccc(Cl)c3)cc2C1,972
13,CCOc1ccc(C(=O)N2CCN(S(=O)(=O)c3cc4c5c(c3)CCC(=O)N5CCC4)CC2)cc1,815
14,Cc1scc2nc(C3CCC3)nc(N3CCC(C(=O)NC4CCCCC4)CC3)c12,752
15,O=C(Nc1c(Cl)cncc1Cl)c1ccc(OC(F)F)c(OCC2CC2)c1,1020
16,CCOC(=O)C1CCN(C(=O)Cc2nnc(-c3sccc3C)o2)CC1,774
17,CC1CCN(C(=O)C2CCCN(c3ncnc4c3nc3n4CCCCC3)C2)CC1 (centres undefined),793
18,COc1ccc(NC(=O)Cn2c(=O)c(CCC(=O)NC3CCCC3)nc3ccccc32)c(OC)c1,792
19,Cn1cc(-c2nc(C(=O)N3CCN(c4ccccc4F)CC3)cs2)c2cccnc21,956
20,Cn1ncc2c3ccccc3n(CC(=O)NCCCN3CCCC3=O)c2c1=O,615
21,CC(C)n1nc2c(S(=O)(=O)N3CCCCC3)cccn2c1=O,803
22,CCn1cc(CCNC(=O)c2c(F)cccc2Cl)c2cccnc21,708
23,Cc1ccc(C(=O)Nc2c(-c3ccccc3)nc3ccccn23)cc1[N+](=O)[O-],693

row,Compound,RP-LC retention time [s]
1,Fc1ccc(-c2nnc(Cc3nc(Cc4ccccc4)no3)o2)cc1,931
2,CNC(=O)c1noc([C@@H]2CC(F)(F)CN2C(=O)C2CCC2)n1,669
3,COc1ccc(-c2noc(CNC(=O)Nc3ccc(Cl)cc3)n2)cc1OC,852
4,CC1CCc2cc(F)ccc2N1C(=O)C12CCC(C1)C(C)(C)C2=O (centres undefined),1020
5,CC1(C(=O)NCc2ccc(Br)cc2)Oc2cccnc2NC1=O (centres undefined),733
6,O=C(CN1C(=O)COc2ccc(C(=O)N3CCCC3)cc21)NCc1ccc2c(c1)OCO2,682
7,CC(=O)N1CCC(c2noc(-c3ccccn3)n2)C1 (centres undefined),596
8,O=C(Cn1c(=O)c2cccn2c2ccc(F)cc21)NCCCN1CCCC1=O,647
9,Cc1cccc(OCC(=O)N2C[C@@H](F)C[C@H]2C(=O)N2CCc3ccccc32)c1,878
10,CN(C)CCCNc1oc(-c2ccc(F)cc2)nc1S(=O)(=O)c1ccccc1,678
11,O=C(COc1ccccc1)Nc1c(C(=O)N2CCN(c3ccccn3)CC2)oc2ccccc12,760
12,O=C(Nc1ccc(Cl)cc1F)c1cnc(-c2ccc(F)cc2)nc1-c1ccncc1,992
13,CCOc1ccccc1NC(=O)c1c(O)c2cccnc2n(-c2cccc(F)c2)c1=O,1320
14,O=C(Cn1c(-c2cccs2)nc2ccccc21)NC1CC1,596
15,O=C(CCSc1ccccc1)NCC(c1ccco1)N1CCOCC1 (centres undefined),574
16,CCOC(=O)c1cc(S(=O)(=O)N2CCCC2C(=O)Nc2cc(C)cc(C)c2)cn1C (centres undefined),1020
17,CCOc1ccccc1CNC(=O)Cc1nnc(-c2cccc(F)c2)o1,805
18,COc1ccc(C2=CC(c3ccc(OC)c(OC)c3)c3c(c4ccccc4oc3=O)O2)cc1OC (centres undefined),1140
19,Cc1ccccc1NC(=O)CSc1nnc2c3cc(-c4ccc(F)cc4)nn3ccn12,897
20,Cc1cc2n(n1)CCC(=O)N2CCCC(=O)NCc1cccs1,637
21,O=C(c1cccnc1)N1CCN(C(=O)c2nnn3c2COC(c2ccc(Cl)cc2)C3)CC1 (centres undefined),692
22,CCCCOc1ccc(C(=O)Nc2ccc(-c3cn4ccc(C)nc4n3)cc2)cc1,781
23,Cc1cccc(OCC(=O)N2CCN(c3cc(=O)n(C(C)C)c(=O)n3C(C)C)CC2)c1,909

row,Compound,RP-LC retention time [s]
1,O=C1CCCC(=O)C1CC1C(=O)CCCC1=O,836
2,CN(CCc1noc(COc2ccc(Cl)cc2Cl)n1)C(=O)c1ccco1,898
3,Cc1ccc(NC(=O)CC(=O)Nc2ccc3nc4n(c(=O)c3c2)CCCCC4)cc1F,750
4,CCOC(=O)c1nc(NCc2ccc(OC)cc2)c2ccccc2n1,749
5,Cc1ccccc1NC(=O)N(C)CC1CCOC1 (centres undefined),704
6,O=C(Nc1cnc(-c2ccccc2)nc1)c1ccc(Br)o1,979
7,O=C(c1cccc(F)c1)N1CCC(n2c(-c3ccco3)nc3cccnc32)C1 (centres undefined),744
8,COc1ccc(C2Cn3nnc(-c4nc(-c5ccc(Br)cc5)no4)c3CO2)cc1 (centres undefined),1260
9,O=C(Nc1ccc(N2CCN(C3CCCC3)C2=O)nc1)c1ccc(Cl)cc1,937
10,O=C(NCC(c1cccnc1)N1CCc2ccccc21)C(=O)Nc1ccc2c(c1)OCCO2 (centres undefined),730
11,COc1cccc(-c2cc3c(=O)n(Cc4nc(-c5ccccc5)no4)ccn3n2)c1,1000
12,Cc1ccc(C)c(NC(=O)C2CCN(S(C)(=O)=O)c3cc(C)ccc3O2)c1 (centres undefined),998
13,O=C(c1cccc2[nH]ccc12)N1CC(Oc2ccc(-c3nc(-c4ccccc4)no3)cc2)C1,1100
14,Cc1cc(NC(=O)CSc2ccc(-n3cccn3)nn2)on1,666
15,COC(=O)[C@H](Cc1c[nH]c2ccccc12)NC(=O)c1cccc(-n2cnnn2)c1,753
16,Cc1ccc(-c2csc(Cc3nc(-c4ccccc4)no3)n2)cc1,1250
17,Cc1cccc(N2CCN(C(=O)CN3C(=O)CN(C)C(=O)c4ccccc43)CC2C)c1 (centres undefined),671
18,COc1ccc(NC(=O)N2CCC(n3cnc4ccc(Cl)cc4c3=O)CC2)c(OC)c1,803
19,Cc1ccc(C(O)CN2CCN(c3ccccc3)CC2)c(C)c1 (centres undefined),703
20,Cc1sc2cc(C(=O)N3CCN(c4ccccn4)CC3)[nH]c2c1CN1CCOCC1,568
21,CCC(C(=O)N1CCN(c2cc(C)n3c(C)nnc3n2)CC1)c1ccccc1 (centres undefined),650
22,CCCCC(=O)Nc1ccc(N(C)CCc2c(C)nn(C)c2C)c(C(=O)O)c1,576
23,CCC(C)NC(=O)Cn1nc(-c2ccccc2)c2cc(Cl)ccc21 (centres undefined),1060

row,Compound,RP-LC retention time [s]
1,CC(=O)c1cccc(NC(=O)Cn2nc3c4cc(-c5ccccc5)nn4ccn3c2=O)c1,822
2,NC(=O)C1CCCN(c2cccc3c2C(=O)c2ccccc2C3=O)C1 (centres undefined),652
3,CNC(=O)c1cc(-c2ccc(OC)cc2)n(C)c1C,783
4,CCCNc1cc(N2CCC(CCC(=O)Nc3ccc(C)cc3C)CC2)ncn1,733
5,O=C(NC1CC1)C1CCN(c2nc3ccc(-c4cccc(F)c4)nc3s2)CC1,918
6,CC1CCN(S(=O)(=O)c2ccc(-c3nnc(C(=O)NCCc4ccc(Cl)cc4)o3)cc2)CC1,1160
7,O=c1c2cnn(-c3ccc(F)cc3)c2ncn1Cc1nc(-c2ccc(OC(F)(F)F)cc2)no1,1160
8,O=C(NCCc1ccccc1)N1C[C@@H]2C[C@H](NS(=O)(=O)c3cccnc3)[C@H]1C2,679
9,Cc1sc(NC(=O)c2ccccc2F)nc1-c1ccc2c(c1)NC(=O)C(C)O2 (centres undefined),899
10,CCN1CCn2cc(S(=O)(=O)Nc3cccc(C#N)c3)cc2C1=O,680
11,Cc1ccc(-c2ccc3nn(Cc4nc(-c5cccc(C(F)(F)F)c5)no4)c(=O)n3n2)cc1,1090
12,CSCC(=O)N1CCC(C2CCN(C(C)=O)CC2)C1 (centres undefined),624
13,Cc1ccc(Nc2nc(N3CCN(CCO)CC3)nc3c2C(=O)CCC3)cc1,656
14,CCC(=O)Nc1cc2c(cc1S(=O)(=O)c1ccccc1)n(C)c(=O)n2C,710
15,Cc1c(Cc2ccc3c(c2)OCO3)sc(NC(=O)c2ccc([N+](=O)[O-])s2)c1C#N,1070
16,Cc1ccc(S(=O)(=O)N(CCN2CCCCC2C)CC(=O)N2CCNCC2)c(C)c1 (centres undefined),588
17,N#Cc1ccc(NC(=O)Cc2cn3cc(F)ccc3n2)cc1,601
18,COc1ccc(CC(=O)Nc2nc3c(s2)COCC3)cc1OC,638
19,O=C(c1ccoc1)N1CCC(OCc2nc(C3CC3)no2)CC1,719
20,CCNC(=O)Nc1ccc2c(c1)CN(Cc1scnc1C)CCO2,566
